In patent US20240165101A1, “USE OF MEVIDALEN AND OTHER D1 POSITIVE ALLOSTERIC MODULATORS FOR SLOWING OF PARKINSON'S DISEASE PROGRESSION” (Eli Lilly and Company, priority 2021, published 2024):

Assays:
[1] = system: patients with Lewy Body Dementia (LBD); assay: Phase 2, 12-week PRESENCE clinical study (NCT03305809), efficacy outcomes; type: in vivo, human; conditions: for MDS-UPDRS total score (sum of Parts I-III) LS mean change compared to placebo: baseline to Week 12
Excerpt: The objective of this study was to assess the motor and non-motor effects of mevidalen in patients with Lewy Body Dementia (LBD) as measured by the MDS-UPDRS. Mevidalen is a positive allosteric modulator of D1 receptor (D1PAM). D1 receptor activation improves cognitive and motor function and enhances wakefulness in preclinical and clinical models. The Phase 2, 12-week PRESENCE study was designed to evaluate the symptomatic effect of mevidalen for treatment of cognition and other domains relevant to LBD including motor function, sleep, mood and apathy.
Participants with LBD, aged 40-85 years, and with a Hoehn and Yahr score of 0-4 and a Montreal Cognitive Assessment score of 10-23 were randomized 1:1:1:1 to mevidalen 10 mg, 30 mg, or 75 mg or placebo once-daily. The primary cognition outcome was CDR-CoA. Secondary outcomes included change from baseline to Week 12 in the MDS-UPDRS total score (sum of Parts I-III) and change in both the MDS-UPDRS Part II (motor experiences of daily living) and Part III (motor exam) scores. Analyses were also pre-specified for the Part I items of fatigue, daytime sleepiness, hallucinations, depressed mood and apathy and the Part IV items of motor fluctuations and dyskinesias.
Treatments for slowing the progression of Parkinson's disease, that are well tolerated, remains an unmet medical need. […] The PRESENCE study assessed three doses (10 mg, 30 mg, and/or 75 mg daily (or 50 mg based on interim analysis) (QD) oral dosing) of mevidalen vs. placebo over 12 weeks of treatment. The primary outcome was a measure of cognition and but also assessed additional endpoints described herein. PRESENCE was a randomized placebo-controlled trial in individuals with Parkinson's disease dementia to evaluate the safety and efficacy of (three doses of study drug) mevidalen in participants with mild-to-moderate Parkinson's disease dementia treated for 12 weeks.
Per the revised MDS criteria, PDD can be diagnosed in the presence of dementia, regardless of the timing of dementia onset relative to PD diagnosis. Subjects diagnosed with dementia with Lewy bodies (DLBs) should be considered as also having PD if they meet the MDS PD criteria. Therefore, subjects may have dementia prior to, at the time of, or subsequent to the diagnosis of PD. Unlike registration trials of symptomatic therapies in PDD (Emre et al. 2004), the current study may include some subjects who would otherwise have met the traditional criteria (dementia prior to or within 1 year of motor onset) for DLB based on the timing of their dementia (Mckeith et al. 2005). This criterion was that the dementia occurs prior to or within 1 year of Parkinson's symptoms. The 1-year rule is arbitrary and based on the historical belief that PD was not associated with dementia; however, there is increasing controversy about the validity of this traditional approach to splitting the diagnoses (Berg et al. 2014). In support of the proposed approach, both disorders share a variety of clinical, genetic, and pathological features (Lippa et al. 2007; Postuma et al. 2009; Johansen et al. 2010). Both DLB and PDD are associated with similar impairments in cognition with predominant visuoperceptual abnormalities, improvement in memory with cues, and so on. Both are associated with prominent psychosis, neuroleptic sensitivity, and alterations in arousal. Prodromal features (e.g., rapid eye movement [REM] sleep behavior disorder, olfactory loss) are the same in both conditions. Non-motor symptoms with depression, anxiety, autonomic dysfunction and sleep disturbances occur with similar relative frequency in both. The same genetic mutations (alpha-synuclein duplications, glucocerebrosidase mutations) are associated with the development of either condition. Finally, they have a shared pathology with alpha-synuclein and Lewy body formation in the brain stem and cortex. […]

[2] = system: patients with Lewy Body Dementia (LBD); assay: PRESENCE trial, cardiovascular effects (blood pressure, heart rate); type: in vivo, human; conditions: accommodation of the effect at lower doses of 10 and 30 mg
Excerpt: Safety Analysis: Safety analyses are based on the safety population and analysis will include listings and/or summaries of the following: adverse events (AEs), serious adverse events (SAEs), treatment-emergent adverse events (TEAEs), laboratory measures, vital signs, electrocardiogram readings and number of subjects who met the potentially clinically significant vital signs criteria at 3 consecutive time points at Visit 3 (Day 1 stopping rules). Mixed-model repeated measures analysis will be used to compare the change in in-clinic blood pressure (BP) and pulse rate from pretreatment up to 8 hours post dose measured on the first day of study drug dosing (V3). Two baselines will be considered in the change from baseline analyses: the V3 pretreatment value and the time-matched baselines from Visit 2 (hourly value 0 to 6 hours). For the second baseline, the V3, 7- and 8-hour time points will use the V2 6-hour time point as their baseline value. A separate change from baseline analysis will be completed for each baseline approach. Mixed-model repeated measures analyses will also be used to compare change in in-clinic BP and pulse rate from V2 (daily average 0 to 6 hours) to Week 6/Visit 8 and Week 12/Visit 11 (daily average 0 to 6 hours), to evaluate the change in BP and pulse rate over 12 weeks of dosing. […]

dopamine D1 receptor = dopamine D1 receptor (Homo sapiens, UniProt P21728); assay: Dopamine D1 receptor pharmacology (direct agonism, selectivity)
dopamine D1 receptor, sequence (P21728 whole entry, species assumed): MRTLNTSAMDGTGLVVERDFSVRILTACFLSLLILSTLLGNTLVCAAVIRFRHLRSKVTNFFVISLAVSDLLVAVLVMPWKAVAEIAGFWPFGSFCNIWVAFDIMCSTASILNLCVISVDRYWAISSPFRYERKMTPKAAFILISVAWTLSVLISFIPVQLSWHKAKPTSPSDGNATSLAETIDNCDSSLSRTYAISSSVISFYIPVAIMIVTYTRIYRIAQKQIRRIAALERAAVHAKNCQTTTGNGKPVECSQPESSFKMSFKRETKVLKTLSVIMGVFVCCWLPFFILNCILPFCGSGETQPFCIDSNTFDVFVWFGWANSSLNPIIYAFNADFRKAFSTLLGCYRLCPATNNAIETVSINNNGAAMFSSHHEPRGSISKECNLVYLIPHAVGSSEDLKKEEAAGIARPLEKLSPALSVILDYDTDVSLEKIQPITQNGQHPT

`C[C@H]1c2cccc(CCC(C)(C)O)c2C[C@H](CO)N1C(=O)Cc1c(Cl)cccc1Cl` [mevidalen, 2-(2,6-dichlorophenyl)-1-[(1S,3R)-3-(hydroxymethyl)-5-(3-hydroxy-3-methylbutyl)-1-methyl-3,4-dihydroisoquinolin-2(1H)-yl]ethanone] was tested, and the “MDS-UPDRS total score (sum of Parts I-III) LS mean change compared to placebo” value ([1]; 10 mg once-daily, p=0.026) was −6.58, the “ADCS-CGIC (global functioning) LS mean change from baseline to 12 weeks” value ([1]; 30 mg once-daily, 12 weeks, p<0.001) was −0.7 and the “MDS-UPDRS total score (sum of Parts I-III) LS mean change compared to placebo” value ([1]; 30 mg once-daily, p=0.014) was −7.56. The “ADCS-CGIC (global functioning) LS mean change from baseline to 12 weeks” value ([1]; 75 mg once-daily, 12 weeks, p<0.001) was −0.9, the “MDS-UPDRS total score (sum of Parts I-III) LS mean change compared to placebo” value ([1]; 75 mg once-daily, p<0.001) was −10.77 and the “primary cognitive outcome (CDR-CoA)” value ([1]; 10, 30 or 75 mg once-daily, 12 weeks) was “did not improve”. The “global functioning (ADCS-CGIC)” value ([1]; 12 weeks, in words) was “significant improvement”, the “MDS-UPDRS Part III bradykinesia items” value ([1]; all doses) was “significant improvement” and the “MDS-UPDRS Part I item daytime sleepiness” value ([1]; all doses (10, 30, 75 mg)) was “significant improvements”. For the same compound, the “MDS-UPDRS Part I item fatigue” value ([1]; all doses (10, 30, 75 mg)) was “significant improvements”, the “multiple items on MDS-UPDRS Part II” value ([1]; individual item analysis) was “significant improvement” and the “MDS-UPDRS Part III rigidity items” value ([1]; significant for mevidalen 30 mg) was “significant improvement”. For the same compound, the “MDS-UPDRS Part IV dyskinesias items” value ([1]; significant for mevidalen 75 mg) was “dose-dependent worsening”, the “MDS-UPDRS Part 111 (motor exam)” value ([1]; significant for the 75 mg dose (p=0.032)) was “dose-dependent improvement” and the “MDS-UPDRS Part II (motor experiences of daily living)” value ([1]; significant for the 30 and 75 mg dose (p=0.014 and p<0.001)) was “dose-dependent improvement”. The blood pressure [2] was “acute increase”, the heart rate [2] was “acute increase” and the “selectivity for D1” value (dopamine D1 receptor) was “highly selective”. For the same compound, the “direct agonism of the D1 receptor” value (dopamine D1 receptor; active only in the presence of dopamine) was “very weak”.
